Experimental data reported in PubChem BioAssay AID1259408 (Genetic Toxicology Data Bank (GENE-TOX), 2018).
Active and inactive are the calls of the source. How the calls were made is not given here.

Tested on: GENE-TOX genotoxicity assays, various organisms and cells
Assay: GENE-TOX mutagenicity studies
Conditions: for call: Assay Type: In vivo carcinogenicity studies
[1] = Species/Cell Type: Salmonella typhimurium (one or more of the five standard strains: TA98, TA100, TA1535, TA1537, and TA1538), Assay Type: Histidine reverse gene mutation, Ames assay, Assay Code: SALT, Evaluation Type: Evaluation A (Pre-1980)
[2] = Species/Cell Type: Salmonella typhimurium (one or more of the five standard strains: TA98, TA100, TA1535, TA1537, and TA1538), Assay Type: Histidine reverse gene mutation, Ames assay, Assay Code: SAL+*, Activation: With metabolic activation, Evaluation Type: Evaluation A (Pre-1980)
[3] = Species/Cell Type: Nonhuman, Assay Code: CCG+L, Evaluation Type: Evaluation A (Pre-1980)
[4] = Species/Cell Type: Rodents, Sex: Male, Assay Type: Dominant lethal test, Assay Code: DLT-, Evaluation Type: Evaluation A (Pre-1980)
[5] = Species/Cell Type: Salmonella typhimurium, Assay Type: Forward and reverse gene mutation, host-mediated assay, Assay Code: HMA-, Evaluation Type: Evaluation A (Pre-1980)
[6] = Species/Cell Type: Human diploid fibroblasts, Assay Type: Unscheduled DNA synthesis (UDS) in vitro, DNA effects, Assay Code: UDH-, Evaluation Type: Evaluation A (Pre-1980)
[7] = Species/Cell Type: Human, Assay Type: Sister-chromatid exchange (SCE) in vitro, Assay Code: SC1-, Evaluation Type: Evaluation B (Post-1980)
[8] = Species/Cell Type: Saccharomyces cerevisiae, Assay Type: Mitotic recombination or gene conversion, Assay Code: YEH-, Evaluation Type: Evaluation A (Pre-1980)
[9] = Species/Cell Type: Salmonella typhimurium (one or more of the five standard strains: TA98, TA100, TA1535, TA1537, and TA1538), Assay Type: Histidine reverse gene mutation, Ames assay, Assay Code: SAL-, Evaluation Type: Evaluation A (Pre-1980)
[10] = Species/Cell Type: Nonhuman, Assay Code: CCG+, Evaluation Type: Evaluation A (Pre-1980)
[11] = Species/Cell Type: Saccharomyces cerevisiae, Assay Type: Mitotic recombination or gene conversion, Assay Code: YECT, Evaluation Type: Evaluation A (Pre-1980)
[12] = Species/Cell Type: Salmonella typhimurium (one or more of the five standard strains: TA98, TA100, TA1535, TA1537, and TA1538), Assay Type: Histidine reverse gene mutation, Ames assay, Assay Code: SAL+, Evaluation Type: Evaluation A (Pre-1980)
[13] = Species/Cell Type: Fischer rat embryo (RLV/1706) cells, Assay Type: Cell transformation, viral enhanced, Assay Code: CTR+, Evaluation Type: Evaluation A (Pre-1980)
[14] = Species/Cell Type: Syrian hamster embryo (SHE) cells, Assay Type: Cell transformation, clonal assay, Assay Code: CTCT, Evaluation Type: Evaluation A (Pre-1980)

O=C(O)c1ccccc1N=Nc1c(O)c(S(=O)(=O)O)cc2cc(S(=O)(=O)O)ccc12
mutagenic call [1]: no conclusion

CN(CCCC(=O)O)N=O
mutagenic call [1]: no conclusion

CCCCN(CC(O)CC)N=O (centres undefined)
mutagenic call [2]: active; positive

C=C(Cl)Cl
mutagenic call (Species/Cell Type: Mammalian polychromatic erythrocytes, Assay Type: Micronucleus test, chromosome aberrations, Assay Code: MNT-, Evaluation Type: Evaluation B (Post-1980)): inactive; negative
call [3]: active; positive
mutagenic call [4]: inactive; negative
mutagenic call [2]: active; positive
mutagenic call (Species/Cell Type: Tradescantia species, Assay Type: Gene mutation, Assay Code: TRM+D, Dose Response: With dose response, Evaluation Type: Evaluation A (Pre-1980)): active; positive

CCCCOc1ccc(CC(=O)NOS(=O)(=O)O)cc1
mutagenic call (Species/Cell Type: Nonhuman, Assay Type: Sister-chromatid exchange (SCE) in vitro, Assay Code: SC2+, Evaluation Type: Evaluation B (Post-1980)): active; positive

CN(C)CCCN1c2ccccc2Sc2ccc(C(F)(F)F)cc21
mutagenic call (Species/Cell Type: Nonhuman bone marrow, Assay Type: Chromosome aberrations, in vivo, Assay Code: CY#-, Evaluation Type: Evaluation A (Pre-1980)): inactive; negative
mutagenic call (Species/Cell Type: Nonhuman, Assay Type: Chromosome aberrations in vitro, Assay Code: CY&+, Evaluation Type: Evaluation A (Pre-1980)): active; positive
mutagenic call (Species/Cell Type: Rodents, Sex: Male, Assay Type: Dominant lethal test, Assay Code: DLT+, Evaluation Type: Evaluation A (Pre-1980)): active; positive
mutagenic call [5]: inactive; negative

CCOP(=S)(OCC)SCSP(=S)(OCC)OCC
mutagenic call (Species/Cell Type: Bacillus subtilis (H17 vs M45), Assay Type: Rec-assay, spot test, DNA effects (bacterial DNA repair), Assay Code: REWT, Evaluation Type: Evaluation A (Pre-1980)): no conclusion
mutagenic call (Species/Cell Type: Escherichia coli polA (W3119 vs P3478), Assay Type: Rec-assay, DNA effects (bacterial DNA repair), Assay Code: RE1T, Evaluation Type: Evaluation A (Pre-1980)): no conclusion
mutagenic call [6]: inactive; negative
mutagenic call [7]: inactive; negative
mutagenic call [8]: inactive; negative
mutagenic call [9]: inactive; negative

C=CCOc1ccccc1OCC(O)CNC(C)C (centres undefined)
mutagenic call (Species/Cell Type: Mammalian polychromatic erythrocytes, Assay Type: Micronucleus test, chromosome aberrations, Assay Code: MNT+, Evaluation Type: Evaluation B (Post-1980)): active; positive

CC(=O)Nc1ccc(CC(=O)c2ccccc2)cc1
mutagenic call [1]: no conclusion

C[C@]12CC[C@@H]3c4ccc(O)cc4CC[C@H]3[C@@H]1CC[C@@H]2O
mutagenic call (Species/Cell Type: Human lymphocytes, Assay Type: Sister-chromatid exchange (SCE) in vitro, Assay Code: SCL-*, Activation: With metabolic activation, Evaluation Type: Evaluation B (Post-1980)): inactive; negative
mutagenic call (Species/Cell Type: Human lymphocytes, Assay Type: Sister-chromatid exchange (SCE) in vitro, Assay Code: SCL-, Evaluation Type: Evaluation B (Post-1980)): inactive; negative
mutagenic call [7]: inactive; negative
mutagenic call (Species/Cell Type: Mouse, Sex: Male, Assay Type: Sperm morphology, Assay Code: SPI+, Evaluation Type: Evaluation A (Pre-1980)): active; positive
call [10]: active; positive
mutagenic call (Species/Cell Type: Nonhuman, Assay Type: Sister-chromatid exchange (SCE) in vitro, Assay Code: SC2T, Evaluation Type: Evaluation B (Post-1980)): no conclusion
mutagenic call (Species/Cell Type: Rat, Sex: Male, Assay Type: Sperm morphology, Assay Code: SPA+, Evaluation Type: Evaluation A (Pre-1980)): active; positive

O=S(=O)(O)c1cc(-n2nc3ccc4ccccc4c3n2)ccc1/C=C/c1ccccc1
mutagenic call [4]: inactive; negative
mutagenic call [11]: no conclusion
mutagenic call [1]: no conclusion

C#C[C@]1(O)CC[C@H]2[C@@H]3CCc4cc(OC)ccc4[C@H]3CC[C@@]21C (tested in a mixture with another compound)
mutagenic call (Species/Cell Type: Human, Sex: Male, Assay Type: Sperm morphology, Assay Code: SPH+, Evaluation Type: Evaluation A (Pre-1980)): active; positive

Cc1nccc2c1[nH]c1ccccc12
mutagenic call (Species/Cell Type: Human lymphocytes, Assay Type: Sister-chromatid exchange (SCE) in vitro, Assay Code: SCL+D, Dose Response: With dose response, Evaluation Type: Evaluation B (Post-1980)): active; positive
mutagenic call (Species/Cell Type: Human, Assay Type: Sister-chromatid exchange (SCE) in vitro, Assay Code: SC1+D, Dose Response: With dose response, Evaluation Type: Evaluation B (Post-1980)): active; positive
mutagenic call [1]: no conclusion

CCn1c2ccccc2c2cc(N)ccc21
call [10]: active; positive

CCCCN(N=O)C(N)=O
mutagenic call (Species/Cell Type: Arabidopsis species, Assay Type: Gene mutation, Assay Code: ARM+D, Dose Response: With dose response, Evaluation Type: Evaluation A (Pre-1980)): active; positive
mutagenic call (Species/Cell Type: Chinese hamster ovary (CHO) cells, Assay Type: Forward gene mutation at the HPRT locus, Assay Code: CHO+D, Dose Response: With dose response, Evaluation Type: Evaluation A (Pre-1980)): active; positive
mutagenic call [6]: inactive; negative
mutagenic call (Species/Cell Type: Nonhuman, Assay Type: Chromosome aberrations in vitro, Assay Code: CY&+D, Dose Response: With dose response, Evaluation Type: Evaluation A (Pre-1980)): active; positive
call [10]: active; positive
mutagenic call (Species/Cell Type: Nonhuman, Assay Type: Sister-chromatid exchange (SCE) in vitro, Assay Code: SC2+D, Dose Response: With dose response, Evaluation Type: Evaluation A (Pre-1980)): active; positive
mutagenic call [4]: inactive; negative
mutagenic call (Species/Cell Type: Saccharomyces cerevisiae, Assay Type: Mitotic recombination or gene conversion, Assay Code: YEC+, Evaluation Type: Evaluation A (Pre-1980)): active; positive
mutagenic call (Species/Cell Type: Salmonella typhimurium, Escherichia coli, Serratia marcesens, Assay Type: Forward and reverse gene mutation, host-mediated assay, Assay Code: HMN+, Evaluation Type: Evaluation A (Pre-1980)): active; positive

[Cl][Pt]([Cl])([Cl])[Cl]
mutagenic call (Species/Cell Type: Bacillus subtilis (H17 vs M45), Assay Type: Rec-assay, spot test, DNA effects (bacterial DNA repair), Assay Code: REW+, Evaluation Type: Evaluation A (Pre-1980)): active; positive
mutagenic call (Species/Cell Type: Drosophila melanogaster, Assay Type: Sex-linked recessive lethal gene mutation, Assay Code: SRL+, Evaluation Type: Evaluation A (Pre-1980)): active; positive

Cl/C=C\CCl
mutagenic call [12]: active; positive

O=S(=O)(c1ccc(Cl)cc1)c1cc(Cl)c(Cl)cc1Cl
mutagenic call (Species/Cell Type: Vicia faba, Assay Type: Chromosome aberrations, Assay Code: VIC+D, Dose Response: With dose response, Evaluation Type: Evaluation A (Pre-1980)): active; positive

CCNCCNc1ccc(CO)c2sc3ccccc3c(=O)c12
mutagenic call [13]: active; positive

CC(=O)OC(c1ccc2c(c1)OCO2)C1CO1 (centres undefined)
mutagenic call [12]: active; positive

CC1CCCCN1CCNc1ccc(CO)c2sc3ccccc3c(=O)c12 (centres undefined)
mutagenic call (Species/Cell Type: Mouse lymphoma (L5178Y) cells, Assay Type: Forward gene mutation at the thymidine kinase (TK) locus, chromosome aberrations, Assay Code: L51+, Evaluation Type: Evaluation A (Pre-1980)): active; positive

CCn1c2cc(=N[N+]#N)ccc-2c2ccc(N=[N+]=[N-])cc2c1-c1ccccc1
mutagenic call [11]: no conclusion
mutagenic call [8]: inactive; negative
mutagenic call (Species/Cell Type: Saccharomyces cerevisiae, Assay Type: Reverse gene mutation, Assay Code: YERT, Evaluation Type: Evaluation A (Pre-1980)): no conclusion

C=C1C(=O)OC2CC(C)C3CC(OCC)OC(OCC)C3(C)CC12 (centres undefined)
mutagenic call [12]: active; positive

Nc1ncnc2c1ccn2[C@@H]1O[C@H](CO)[C@@H](O)[C@H]1O
mutagenic call (Species/Cell Type: Fischer rat embryo (RLV/1706) cells, Assay Type: Cell transformation, viral enhanced, Assay Code: CTR-, Evaluation Type: Evaluation A (Pre-1980)): inactive; negative

N=C1C=CC(=C(c2ccc(N)cc2)c2ccc(N)cc2)C=C1
mutagenic call (Species/Cell Type: Escherichia coli polA (W3119 vs P3478), Assay Type: Rec-assay, DNA effects (bacterial DNA repair), Assay Code: RE1+, Evaluation Type: Evaluation A (Pre-1980)): active; positive
mutagenic call [13]: active; positive
mutagenic call (Species/Cell Type: Mouse (BALB/c-3T3) cells, Assay Type: Cell transformation, Assay Code: CTB+D, Dose Response: With dose response, Evaluation Type: Evaluation A (Pre-1980)): active; positive
call [3]: active; positive
mutagenic call [8]: inactive; negative
mutagenic call [9]: inactive; negative
mutagenic call [5]: inactive; negative
mutagenic call [14]: no conclusion

O=C(CNC(=O)c1ccccc1)NO
mutagenic call [12]: active; positive

C[C@H](CCC(=O)O)[C@H]1CC[C@H]2[C@@H]3CC[C@@H]4C[C@H](O)CC[C@]4(C)[C@H]3CC[C@]12C
mutagenic call [13]: active; positive
mutagenic call [14]: no conclusion

c1cc2c(cc1CC1CO1)OCO2 (centres undefined)
mutagenic call [12]: active; positive
